{"source": "paper PMC12528727", "about": "(Nature Communications, 2025)", "key": {"E. coli z44": {"test_system": "E. coli z44", "conditions": "two-fold dilutions 128 µM to 1 µM; CaMHB, 37 °C, 16 h, OD600; n = 3"}, "S. aureus 09057": {"test_system": "S. aureus 09057", "conditions": "two-fold dilutions 128 µM to 1 µM; CaMHB, 37 °C, 16 h, OD600; n = 3"}, "NIH/3T3 cells": {"test_system": "NIH/3T3 cells", "assay": "Cytotoxicity assay", "assay_type": "cell-based, murine", "conditions": "128 µM peptide, 24 h, CCK-8, absorbance 450 nm, n = 3"}, "[1]": {"assay": "ABTS+ radical scavenging assay", "assay_type": "biochemical", "conditions": "1 mg/mL c_AMPs"}, "[2]": {"test_system": "Micrococcus luteus ATCC4698", "assay": "Antibacterial activity screen at 128 µM", "conditions": "128 µM peptide"}, "Bacillus subtilis WB600": {"test_system": "Bacillus subtilis WB600", "assay": "Antibacterial activity screen at 128 µM", "conditions": "128 µM peptide"}, "[3]": {"test_system": "Candida albicans ATCC10231", "assay": "Antifungal activity assay at 128 µM", "assay_type": "cell-based", "conditions": "128 µM peptide; growth curves (Supplementary Fig. 11)"}}, "note": "Where no end group is shown, it is not given here.", "data": [{"sequence": "IRPWRKPRWPWKR [D2]", "values": [{"measurement": "minimum inhibitory concentration (MIC), E. coli z44", "setting": "E. coli z44", "value": 8, "unit": "µM"}, {"measurement": "MIC, S. aureus 09057", "setting": "S. aureus 09057", "value": 32, "unit": "µM"}]}, {"sequence": "GKGAKKGLKGLKG [B3]", "values": [{"measurement": "cytotoxicity rate", "setting": "NIH/3T3 cells", "value": 6.97, "unit": "%"}]}, {"sequence": "KKGLGGKLLACKG [A3]", "values": [{"measurement": "ABTS^+ free radical scavenging rate", "setting": "[1]", "value": "≥ 90", "unit": "%"}, {"measurement": "inhibition of M. luteus ATCC4698 growth", "setting": "[2]", "value": "completely inhibit"}, {"measurement": "time for which growth of B. subtilis WB600 was halted post treatment", "setting": "Bacillus subtilis WB600; growth curves (Supplementary Fig. 11), no inhibition at 16 h", "value": "up to 3 h"}]}, {"sequence": "GLCGKGGKCCCGC [C1]", "values": [{"measurement": "inhibition of M. luteus ATCC4698 growth", "setting": "[2]", "value": "completely inhibit"}, {"measurement": "effect on B. subtilis WB600", "setting": "Bacillus subtilis WB600", "value": "negatively impacted"}]}, {"sequence": "CLCGGKGKKLGKG [C4]", "values": [{"measurement": "time for which growth of C. albicans ATCC10231 was inhibited post treatment", "setting": "[3]", "value": "up to 2 h"}]}, {"sequence": "KKPRPWPWKRRKK [D4]", "values": [{"measurement": "ABTS^+ free radical scavenging rate", "setting": "[1]", "value": 72, "unit": "%"}]}, {"sequence": "KLKGLLGGKKKLK [A1]", "values": [{"measurement": "inhibition of M. luteus ATCC4698 growth", "setting": "[2]", "value": "completely inhibit"}]}]}
